Source: patent publication US9499705B2, “Radically polymerizable photo-curable ink jet ink composition” (Seiko Epson Corporation, priority 2013, dated 2016)

Key:
[1] = Redispersibility after long-time storage (rate of change in absorbance of agitated ink after one year); format: physicochemical; conditions: redispersing effect of the saturated aliphatic carboxylic acid in the ink
Procedure: Ink bags containing respective ink compositions were allowed to stand at room temperature (25° C.) with the rectangular face of the ink bag in a horizontal position for a year. […] Subsequently, the ink bag was turned upside down and was reciprocally moved 50 times in the same manner with the rectangular face of the ink gab in a horizontal position. After the ink composition in the ink bag was thus agitated, the ink composition was sampled from the upper side in the ink gab with the ink inlet facing up. Then, the absorbance of the sampled ink composition was measured with a spectrophotometer U-3300 (manufactured by Hitachi) and compared with the absorbance before the storage. […] As a larger amount of sediment settles, the density of the white pigment in the ink composition tends to be reduced, and accordingly the absorbance after storage is generally low.

[2] = Acid dissociation constant pKa of saturated aliphatic carboxylic acids; format: physicochemical; conditions: for pKa1: first acid dissociation constant; for pKa2: second acid dissociation constant
Text: The acid dissociation constant pKa1 of the saturated aliphatic carboxylic acid is preferably 4.0 or more, more preferably 4.0 to 4.5, still more preferably 4.1 to 4.5. If the saturated aliphatic carboxylic acid is divalent or more polyvalent, the second acid dissociation constant pKa2 is preferably 5.0 or more. The acid dissociation constant pKa can be measured by, for example, titration, absorptiometry, or capillary electrophoresis.

| Redispersion [1] | pKa1 [2] | pKa2 [2] | pKa3 ([2]; third acid dissociation constant) | Structure (SMILES) |
| --- | --- | --- | --- | --- |
| Excellent | 4.26 | 5.03 | – | O=C(O)CCCCC(=O)O [Adipic acid] |
| Fair | 2.87 | 4.35 | 5.69 | O=C(O)CC(O)(CC(=O)O)C(=O)O [Citric acid] |
| Good | 4.64 | – | – | CCCCCCCCCCCCCCCC(=O)O [Palmitic acid] |
| Good | 4 | 5.24 | – | O=C(O)CCC(=O)O [Succinic acid] |
